Data on 2 compounds can be found in patent US7666685B2, “Screening method for identification of compounds suitable for treatment of oral cavity malodor associated with consumption of garlic” (Wm. Wrigley Jr. Company, priority 2005, dated 2010).

A short description of experiment [1]: In vitro dose response: SPME GC/MS headspace analysis of raw macerated garlic solution treated with active. Particulars: for GC/MS Peak Area (diallyl disulfide headspace): individual runs; for GC/MS Peak Area (diallyl disulfide headspace), Mean: mean of 3 runs; for reduction of diallyl disulfide headspace concentration: vs control garlic solution. Here is the method: A model solution containing raw chopped garlic (20 g) dispersed in water (200 ml) was prepared by blending in a Waring commercial blender (Waring Commercial, Torrington, Conn.) at low power for 30 seconds and at high power for 30 seconds. The resulting solution was homogeneous with no visible garlic particles present.
A portion of the raw, macerated garlic solution (5 g) was treated with different levels of potential ameliorating actives and the headspace was extracted and analyzed (as described in greater detail below) to determine the effect of the potential actives on the headspace concentration of compounds contributing to oral cavity malodor associated with consumption of garlic.
Headspace of a vessel containing a portion of the garlic solution (5 ml) treated with a potential active was extracted for 60 minutes utilizing solid phase microextraction (SPME) with a 75 μm Carboxen-polydimethyl siloxane fiber (Supelco, Bellefonte, Pa.).
The SPME fiber assembly was injected into an Agilent 6890 gas chromatograph (GC)/mass spectrometer (MS) modified for multidimensional analyses and equipped with a sniff port and Aroma Trax software (Microanalytics, Round Rock, Tex.). Fibers remained in the GC injection port for five minutes following injection.
The GC/MS operating parameters included a He carrier gas flow rate of 6.5 ml/min, split mode (2:1) and the injector set at 250° C. Column 1 was 12 meter, 0.53 mm I.D. with a methyl silica stationary phase. Column 2 was a 25 meter, 0.53 mm DB-5 capillary column. The oven was programmed to hold at 40° C. for 3 minutes and to heat to 220° C. at a rate of 7° C./min and hold at 220° C. for 20 minutes. The MS operated in Electron Impact Mode (E.I.) at 70 eV.
A model solution containing raw chopped garlic dispersed in water was prepared as described in Example 1. […] For comparison purposes, the diallyl disulfide content of the headspace of a control model solution (i.e., no menthone added) was also analyzed.

A short description of experiment [2]: Sensory analysis: ten panelists rate the odor intensity of the raw macerated garlic solution with added active. Particulars: for Odor Intensity (0–100): individual panelists, 0=no odor, 100=very strong odor; for Odor Intensity (0–100), Mean: mean of N = 10 panelists. The method, then:
Sensory analysis of the solutions utilized for analytical analyses of the raw garlic described above was conducted by ten panelists who evaluated the odor intensity of the model solution (raw macerated garlic) with and without the different levels of added active. Odor intensity was assessed utilizing a 0-100 point scale ballot with 0=no odor and 100=very strong odor.

Where “and” joins values, the source holds several entries; their conditions need not be identical. Equal entries are not always repeated.

Regarding `CC(C)[C@@H]1CC[C@@H](C)CC1=O` [menthone], the “GC/MS Peak Area (diallyl disulfide headspace)” value was 46610414 and 58241626 and 60764744 in experiment [1] (0.3 mg/g garlic solution); 20835556 and 16829160 and 16827232 in experiment [1] (1 mg/g garlic solution); 6746448 and 4757863 and 5868573 in experiment [1] (3 mg/g garlic solution). Also, the “GC/MS Peak Area (diallyl disulfide headspace), Mean” value in experiment [1] (0.3 mg/g garlic solution) is recorded as 55205595; in experiment [1] (1 mg/g garlic solution), 18163983; in experiment [1] (3 mg/g garlic solution), 5790961.3. Further, the “less diallyl disulfide in headspace than control model solution” value in experiment [1] (Example 3: 1.63 mg in 2.5 g model solution, at each headspace analysis interval (5 hour intervals)) is “at least 50%”. Besides, the “Odor Intensity (0–100)” value in experiment [2] (0.33 mg/g) was 1 (2×) and 6 and 7 (4×) and 5 and 8 and 3; in experiment [2] (1 mg/g), 1 and 2 (6×) and 4 (2×) and 6; in experiment [2] (3 mg/g), 2 (2×) and 0 (2×) and 4 (2×) and 3 (2×) and 1 (2×). The figures for the “Odor Intensity (0–100), Mean” value in experiment [2] (0.33 mg/g), in experiment [2] (1 mg/g) and in experiment [2] (3 mg/g) were 5.2, 2.7 and 2, respectively. In addition, the “reduction of odor of raw macerated garlic in water (sensory)” value in experiment [2] (active concentration 0.3 mg/g) amounted to 48%; in experiment [2] (active concentration 3 mg/g) it was 80%.
For caryophyllene, the “GC/MS Peak Area (diallyl disulfide headspace)” value in experiment [1] (0.1 mg/g garlic solution) is 52155883 and 49803124 and 56316479; in experiment [1] (0.24 mg/g garlic solution), 67591321 and 69400527 and 61729644; in experiment [1] (0.4 mg/g garlic solution), 93422075 and 91167385 and 94368797. Moreover, the figures for the “GC/MS Peak Area (diallyl disulfide headspace), Mean” value in experiment [1] (0.1 mg/g garlic solution), in experiment [1] (0.24 mg/g garlic solution) and in experiment [1] (0.4 mg/g garlic solution) were 52758495, 66240497 and 92986086, respectively. For the same compound, the “reduction of diallyl disulfide headspace concentration” value turned out to be 34% in experiment [1] (active concentration 0.1 mg/g) and 63% in experiment [1] (active concentration 0.4 mg/g). In addition, the “Odor Intensity (0–100)” value in experiment [2] (0.1 mg/g) is 5 (3×) and 6 (2×) and 2 and 4 (3×) and 7; in experiment [2] (0.2 mg/g), 4 (2×) and 5 (3×) and 9 (2×) and 8 and 3 (2×); in experiment [2] (0.4 mg/g), 2 and 5 and 3 (3×) and 4 (3×) and 0 and 1. For the same compound, the “Odor Intensity (0–100), Mean” value came out at 4.8 in experiment [2] (0.1 mg/g), 5.5 in experiment [2] (0.2 mg/g) and 2.9 in experiment [2] (0.4 mg/g). The “decrease of odor intensity (sensory)” value is 52% in experiment [2] (active concentration 0.1 mg/g) and 71% in experiment [2] (active concentration 0.4 mg/g).
